Data: patent publication EP3628672A1 (priority 2018, dated 2020)

How the values were obtained:
[1] = molecular target: T1, purified LasB protein from P. aeruginosa (Pseudomonas aeruginosa, UniProt P14756); test: Fluorometric assay to determine Ki (Abz-Ala-Gly-Leu-Ala-p-Nitro-Benzyl-Amide substrate); assay type: biochemical
T1 construct: purchased Merck or Charles River Laboratories
In short: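 Purified P. aeruginosa LasB (10–140 ng/ml) with 250 µM Abz-Ala-Gly-Leu-Ala-p-nitrobenzylamide in 50 mM Tris-HCl pH 7.4, 2.5 mM CaCl2, 0.01% Triton X100, 37 °C; hydrolysis fluorescence (Ex 340/Em 415 nm) followed over 30 min, inhibitor 0.0016–200 µM. Ki = IC50/(1+[S]/Km), Km 214 µM.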

[2] = molecular target: T2, LasB (Pseudomonas aeruginosa, UniProt P14756); test: Elastin assay to determine % inhibition (Elastin Congo-Red, dialysed culture supernatant); assay type: biochemical, P. aeruginosa PAO1; details: read-out: Elastin hydrolysis % inhibition @ 50 / 25 µM inhibitor concentration
T2 construct: uses as source of enzyme dialysed supernatant from P. aeruginosa PAO1; endogenous in cells; host or cells: P. aeruginosa PAO1 culture supernatant, filtered and dialysed
T2 sequence (P14756 198-498): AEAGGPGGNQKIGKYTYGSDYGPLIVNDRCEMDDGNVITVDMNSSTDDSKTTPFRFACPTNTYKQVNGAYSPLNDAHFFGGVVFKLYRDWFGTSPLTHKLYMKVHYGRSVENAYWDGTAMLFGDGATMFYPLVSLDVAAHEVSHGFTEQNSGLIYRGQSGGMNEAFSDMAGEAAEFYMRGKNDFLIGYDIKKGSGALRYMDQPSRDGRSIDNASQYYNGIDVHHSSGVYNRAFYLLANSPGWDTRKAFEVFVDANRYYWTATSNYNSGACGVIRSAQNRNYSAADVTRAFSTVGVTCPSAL
In short: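 Enzyme source was dialysed PAO1 culture supernatant (50 mM Tris-HCl pH 7.4, 2.5 mM CaCl2), mixed with Elastin Congo-Red and 0.01% Triton X-100. Compound was routinely 50 to 1.56 µM, incubated overnight at 37 °C with shaking. Dye release at OD495 gave % inhibition relative to DMSO and no-enzyme controls.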

T1 sequence (P14756 198-498): as above

`COc1ccc(-c2csc(CNC(=O)C3(CC(=O)O)Cc4ccccc4C3)n2)cc1` [Example 6, 2-[2-[[4-(4-methoxyphenyl)thiazol-2-yl]methylcarbamoyl]indan-2-yl]acetic acid] showed a Ki [1] of 50 to 200 nM and an inhibition at 25 µM [2] greater than 75%.

Compound `C[n+]1ccc(COc2ccc(-c3csc(CNC(=O)C4(CC(=O)[O-])Cc5ccccc5C4)n3)cc2)cc1` [Example 51, 2-[2-[[4-[4-[(1-methylpyridin-1-ium-4-yl)methoxy]phenyl]thiazol-2-yl]methylcarbamoyl]indan-2-yl]acetate] has a Ki [1] of 50 to 200 nM and an inhibition at 25 µM [2] of 60 to 75%.

Work on `CN1CCN(C(=O)COc2ccc(-c3csc(CNC(=O)C4(CC(=O)O)Cc5ccccc5C4)n3)cn2)CC1` [Example 38, 2-[2-[[4-[6-[2-(4-methylpiperazin-1-yl)-2-oxo-ethoxy]-3-pyridyl]thiazol-2-yl]methylcarbamoyl]indan-2-yl]acetic acid] yielded a Ki [1] of 50 to 200 nM and an inhibition at 25 µM [2] of 60 to 75%.

For `CN1CCN(S(=O)(=O)c2ccc(-c3csc(CNC(=O)C4(CC(=O)O)Cc5ccccc5C4)n3)cc2)CC1` [Example 130, 2-[2-[[4-[4-(4-methylpiperazin-1-yl)sulfonylphenyl]thiazol-2-yl]methylcarbamoyl]indan-2-yl]acetic acid], the Ki [1] was 50 to 200 nM and the inhibition at 25 µM [2] was 60 to 75%.

`Cn1nccc1-c1csc(CNC(=O)C2(CC(=O)O)Cc3ccccc3C2)n1` [Example 92, 2-[2-[[4-(2-methylpyrazol-3-yl)thiazol-2-yl]methylcarbamoyl]indan-2-yl]acetic acid] showed a Ki [1] of 50 to 200 nM and an inhibition at 25 µM [2] of 60 to 75%.

Work on `CN(C)C1CCN(S(=O)(=O)c2cc(-c3csc(CNC(=O)C4(CC(=O)O)Cc5cc(F)c(F)cc5C4)n3)ccc2OCCCN2CCCC2)CC1` [Example 139, 2-[2-[[4-[3-[[4-(dimethylamino)-1-piperidyl]sulfonyl]-4-(3-pyrrolidin-1-ylpropoxy)phenyl]thiazol-2-yl]methylcarbamoyl]-5,6-difluoro-indan-2-yl]acetic acid] yielded a Ki [1] of 50 to 200 nM and an inhibition at 25 µM [2] of 10 to 60%.

With `C[N+]1(CCCOc2ccc(-c3csc(CNC(=O)C4(CC(=O)[O-])Cc5ccccc5C4)n3)cc2S(C)(=O)=O)CCOCC1` [Example 61, 2-[2-[[4-[4-[3-(4-methylmorpholin-4-ium-4-yl)propoxy]-3-methylsulfonyl-phenyl]thiazol-2-yl]methylcarbamoyl]indan-2-yl]acetate] the Ki [1] was 50 to 200 nM and the inhibition at 25 µM [2] was 60 to 75%.

`CN(C)CC(=O)Nc1ccc(-c2csc(CNC(=O)C3(CC(=O)O)Cc4ccccc4C3)n2)cc1` [Example 39, 2-[2-[[4-[4-[[2-(dimethylamino)acetyl]amino]phenyl]thiazol-2-yl]methylcarbamoyl]indan-2-yl]acetic acid] gave a Ki [1] of 50 to 200 nM and an inhibition at 25 µM [2] of 60 to 75%.

`CS(=O)(=O)c1cc(-c2csc(CNC(=O)C3(CC(=O)O)Cc4ccccc4C3)n2)ccc1OCCN1CCOCC1` [Example 135, 2-[2-[[4-[3-methylsulfonyl-4-(2-morpholinoethoxy)phenyl]thiazol-2-yl]methylcarbamoyl]indan-2-yl]acetic acid] gave a Ki [1] of less than 50 nM and an inhibition at 25 µM [2] greater than 75%.

`CC(=O)N1CCN(CCCn2cc(-c3csc(CNC(=O)C4(CC(=O)O)Cc5ccccc5C4)n3)cn2)CC1` [Example 106, 2-[2-[[4-[1-[3-(4-acetylpiperazin-1-yl)propyl]pyrazol-4-yl]thiazol-2-yl]methylcarbamoyl]indan-2-yl]acetic acid] gave a Ki [1] of 50 to 200 nM and an inhibition at 25 µM [2] of 60 to 75%.

`CN1CCN(S(=O)(=O)c2cccc(-c3csc(CNC(=O)C4(CC(=O)O)Cc5ccccc5C4)n3)c2)CC1` [Example 127, 2-[2-[[4-[3-(4-methylpiperazin-1-yl)sulfonylphenyl]thiazol-2-yl]methylcarbamoyl]indan-2-yl]acetic acid] gave a Ki [1] of 50 to 200 nM and an inhibition at 25 µM [2] greater than 75%.

With `CN1CCN(C(=O)CN2CCC(n3cc(-c4csc(CNC(=O)C5(CC(=O)O)Cc6ccccc6C5)n4)cn3)CC2)CC1` [Example 105, 2-[2-[[4-[1-[1-[2-(4-methylpiperazin-1-yl)-2-oxo-ethyl]-4-piperidyl]pyrazol-4-yl]thiazol-2-yl]methylcarbamoyl]indan-2-yl]acetic acid] the Ki [1] was 50 to 200 nM and the inhibition at 25 µM [2] was 60 to 75%.

`COc1ccc(-c2csc(CNC(=O)C3(CC(=O)[O-])Cc4cc(F)c(F)cc4C3)n2)cc1S(=O)(=O)N1CCC([N+](C)(C)C)CC1` [Example 124, 2-[5,6-difluoro-2-[[4-[4-methoxy-3-[[4-(trimethylammonio)-1-piperidyl]sulfonyl]phenyl]thiazol-2-yl]methylcarbamoyl]indan-2-yl] acetate] showed a Ki [1] of 50 to 200 nM and an inhibition at 25 µM [2] of 60 to 75%.

Compound `O=C(O)CC1(C(=O)NCc2nc(-c3ccccc3CO)cs2)Cc2ccccc2C1` [Example 148, 2-[2-[[4-[2-(hydroxymethyl)phenyl]thiazol-2-yl]methylcarbamoyl]indan-2-yl]acetic acid] has a Ki [1] of 50 to 200 nM and an inhibition at 25 µM [2] of 60 to 75%.

`CN1CCN(c2ccc(-c3csc(CNC(=O)C4(CC(=O)O)Cc5ccccc5C4)n3)cn2)CC1` [Example 34, 2-[2-[[4-[6-(4-methylpiperazin-1-yl)-3-pyridyl]thiazol-2-yl]methylcarbamoyl]indan-2-yl]acetic acid] showed a Ki [1] of 50 to 200 nM and an inhibition at 25 µM [2] of 60 to 75%.

For `CN1CCN(CC(=O)Nc2ccc(-c3csc(CNC(=O)C4(CC(=O)O)Cc5ccccc5C4)n3)cc2)CC1` [Example 45, 2-[2-[[4-[4-[[2-(4-methylpiperazin-1-yl)acetyl]amino]phenyl]thiazol-2-yl]methylcarbamoyl]indan-2-yl]acetic acid], the Ki [1] was 50 to 200 nM and the inhibition at 25 µM [2] was 60 to 75%.

`C[N+]1(CCOc2ccc(-c3csc(CNC(=O)C4(CC(=O)[O-])Cc5ccccc5C4)n3)cc2S(C)(=O)=O)CCOCC1` [Example 136, 2-[2-[[4-[4-[2-(4-methylmorpholin-4-ium-4-yl)ethoxy]-3-methylsulfonyl-phenyl]thiazol-2-yl]methylcarbamoyl]indan-2-yl]acetate] was tested, and the Ki [1] was 50 to 200 nM and the inhibition at 25 µM [2] was 60 to 75%.

`COc1cc(OCc2cc[n+](C)cc2)ccc1-c1csc(CNC(=O)C2(CC(=O)[O-])Cc3ccccc3C2)n1` [Example 75, 2-[2-[[4-[2-methoxy-4-[(1-methylpyridin-1-ium-4-yl)methoxy]phenyl]thiazol-2-yl]methylcarbamoyl]indan-2-yl]acetate] showed a Ki [1] of 50 to 200 nM and an inhibition at 25 µM [2] of 60 to 75%.

In the case of `O=C(O)CC1(C(=O)NCc2nc(-c3ccccc3OC(F)(F)F)cs2)Cc2ccccc2C1` [Example 145, 2-[2-[[4-[2-(trifluoromethoxy)phenyl]thiazol-2-yl]methylcarbamoyl]indan-2-yl]acetic acid], the Ki [1] is reported as 50 to 200 nM and the inhibition at 25 µM [2] is reported as 60 to 75%.

Work on `CN(C)C1CN(C(=O)c2ccc(-c3csc(CNC(=O)C4(CC(=O)O)Cc5ccccc5C4)n3)cc2)C1` [Example 20, 2-[2-[[4-[4-[3-(dimethylamino)azetidine-1-carbonyl]phenyl]thiazol-2-yl]methylcarbamoyl]indan-2-yl]acetic acid] yielded a Ki [1] of 200 to 10000 nM and an inhibition at 25 µM [2] of 60 to 75%.

For `O=C([O-])CC1(C(=O)NCc2nc(-c3ccc(OCCC[n+]4ccccc4)cc3)cs2)Cc2ccccc2C1` [Example 59, 2-[2-[[4-[4-(3-pyridm-1-ium-1-ylpropoxy)phenyl]thiazol-2-yl]methylcarbamoyl]indan-2-yl]acetate], the Ki [1] was 50 to 200 nM and the inhibition at 25 µM [2] was 60 to 75%.

`COc1cc(OCC[N+]2(C)CCOCC2)ccc1-c1csc(CNC(=O)C2(CC(=O)[O-])Cc3cc(F)c(F)cc3C2)n1` [Example 68, 2-[5,6-difluoro-2-[[4-[2-methoxy-4-[2-(4-methylmorpholin-4-ium-4-yl)ethoxy]phenyl]thiazol-2-yl]methylcarbamoyl]indan-2-yl]acetate] showed a Ki [1] of 50 to 200 nM and an inhibition at 25 µM [2] of 60 to 75%.

With `O=C(O)CC1(C(=O)NCc2nc(-c3ccc(O)cc3)cs2)Cc2ccccc2C1` [Example 11, 2-[2-[[4-(4-hydroxyphenyl)thiazol-2-yl]methylcarbamoyl]indan-2-yl]acetic acid] the Ki [1] was 50 to 200 nM and the inhibition at 25 µM [2] was 60 to 75%.

With `CN1CCN(S(=O)(=O)c2cc(-c3csc(CNC(=O)C4(CC(=O)O)Cc5ccccc5C4)n3)ccc2OCCCN2CCOCC2)CC1` [Example 133, 2-[2-[[4-[3-(4-methylpiperazin-1-yl)sulfonyl-4-(3-morpholinopropoxy)phenyl]thiazol-2-yl]methylcarbamoyl]indan-2-yl]acetic acid] the Ki [1] was less than 50 nM and the inhibition at 25 µM [2] was 60 to 75%.

`CN(C)CCNS(=O)(=O)c1cccc(-c2csc(CNC(=O)C3(CC(=O)O)Cc4ccccc4C3)n2)c1` [Example 129, 2-[2-[[4-[3-[2-(dimethylamino)ethylsulfamoyl]phenyl]thiazol-2-yl]methylcarbamoyl]indan-2-yl]acetic acid] gave a Ki [1] of 200 to 10000 nM and an inhibition at 25 µM [2] of 60 to 75%.

`COc1cc(OCC(=O)N2CC([N+](C)(C)C)C2)ccc1-c1csc(CNC(=O)C2(CC(=O)[O-])Cc3cc(F)c(F)cc3C2)n1` [Example 64, 2-[5,6-difluoro-2-[[4-[2-methoxy-4-[2-oxo-2-[3-(trimethylammonio)azetidin-1-yl]ethoxy]phenyl]thiazol-2-yl]methylcarbamoyl]indan-2-yl]acetate] gave a Ki [1] of 50 to 200 nM and an inhibition at 25 µM [2] of 60 to 75%.

`CN1CCN(C(=O)CN2CCN(c3ccc(-c4csc(CNC(=O)C5(CC(=O)O)Cc6ccccc6C5)n4)cc3)CC2)CC1` [Example 36, 2-[2-[[4-[4-[4-[2-(4-methylpiperazin-1-yl)-2-oxo-ethyl]piperazin-1-yl]phenyl]thiazol-2-yl]methylcarbamoyl]indan-2-yl]acetic acid] showed a Ki [1] of less than 50 nM and an inhibition at 25 µM [2] greater than 75%.
